Results: US9469615B2, “Quinoxalines and AZA-quinoxalines as CRTH2 receptor modulators” (Merck Sharp & Dohme Corp., priority 2010, dated 2016)

These molecules were tested against T1, hCRTH2 (Homo sapiens, UniProt Q9Y5Y4) (assay: Radioligand binding assay ([3H]PGD2 competition, HEK-hCRTH2 membranes)). Conditions: [3H]PGD2 binding, rated A-E (Table A).
T1 construct: expressed in transfected cells; host or cells: HEK (human embryonic kidney) cells expressing hCRTH2; membrane preparation
T1 sequence (Q9Y5Y4 1-395): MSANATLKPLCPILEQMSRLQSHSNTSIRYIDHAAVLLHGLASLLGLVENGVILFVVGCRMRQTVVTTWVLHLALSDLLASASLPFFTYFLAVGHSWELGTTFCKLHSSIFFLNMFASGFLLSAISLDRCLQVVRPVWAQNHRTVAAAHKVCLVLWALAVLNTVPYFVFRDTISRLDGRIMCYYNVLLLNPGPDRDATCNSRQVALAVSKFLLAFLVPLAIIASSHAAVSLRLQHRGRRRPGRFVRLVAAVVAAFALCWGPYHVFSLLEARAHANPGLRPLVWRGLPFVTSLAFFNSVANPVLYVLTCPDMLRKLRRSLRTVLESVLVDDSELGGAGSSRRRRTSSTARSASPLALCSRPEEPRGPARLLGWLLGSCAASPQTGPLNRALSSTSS
Outline: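 Membranes (8-20 μg protein) from HEK-hCRTH2 cells were incubated 60 min at room temperature with 3.0 nM [3H]PGD2 in 50 mM Tris-HCl pH 7.4, 1 mM EDTA, 2 mM MnCl2, 1% DMSO. Non-specific binding defined with 10 μM PGD2. Bound radioactivity counted after filtration.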
Work on `O=C(O)CCCNc1nc2cc(C(=O)N3CCC(c4ccc(Cl)cc4)CC3)ccc2nc1-c1ccccc1` [44K, 4-((7-(4-(4-chlorophenyl)piperidine-1-carbonyl)-3-phenylquinoxalin-2-yl)amino)butanoic acid] yielded a Ki of 0.1 to 2 nM. `O=C(O)CCCNc1nc2cc(C(=O)N3CCN(c4ccc(Cl)cc4)CC3)ccc2nc1-c1ccccc1` [44L, 4-((7-(4-(4-chlorophenyl)piperazine-1-carbonyl)-3-phenylquinoxalin-2-yl)amino)butanoic acid] gave a Ki of 2.1 to 20 nM. With `O=C(O)CCCNc1nc2cc(C(=O)N3CC[C@H](c4ccccc4)C3)ccc2nc1-c1ccccc1` [44M, (R)-4-((3-phenyl-7-(3-phenylpyrrolidine-1-carbonyl)quinoxalin-2-yl)amino)butanoic acid] the Ki was 2.1 to 20 nM. In the case of `C[C@@H]1CN(c2ccccc2)CCN1C(=O)c1ccc2nc(-c3ccccc3)c(NCCCC(=O)O)nc2c1` [44N, (R)-4-((7-(2-methyl-4-phenylpiperazine-1-carbonyl)-3-phenylquinoxalin-2-yl)amino)butanoic acid], the Ki is reported as 2.1 to 20 nM. `O=C(O)CCCNc1nc2cc(C(=O)N[C@@H]3CCCc4ccccc43)ccc2nc1-c1ccccc1` [44i, (R)-4-((3-phenyl-7-((1,2,3,4-tetrahydronaphthalen-1-yl)carbamoyl)quinoxalin-2-yl)amino)butanoic acid] showed a Ki of 0.1 to 2 nM. Work on `O=C(O)CCCCc1nc2cc(C(=O)C3CC3)ccc2nc1-c1cccc(F)c1` [compound 3, 5-[7-(Cyclopropanecarbonyl)-3-(3-fluorophenyl)quinoxalin-2-yl]pentanoic Acid] yielded a Ki of 2.1 to 20 nM. In the case of `C[C@H](NC(=O)c1ccc2nc(-c3ccc(C(F)(F)F)cc3)c(CCCCC(=O)O)nc2c1)c1cccc(-c2ccccc2)c1` [compound 4, (S)-5-{7-[1-(biphenyl-3-yl)ethylcarbamoyl]-3-[4-(trifluoromethyl)phenyl]quinoxalin-2-yl}pentanoic Acid], the Ki is reported as 2.1 to 20 nM. With `O=C(O)CCCCc1nc2cc(C(=O)C3CC3)ccc2nc1-c1ccc(F)cc1` [compound 5, 5-(7-(cyclopropanecarbonyl)-3-(4-fluorophenyl)quinoxalin-2-yl)pentanoic acid] the Ki was 0.1 to 2 nM. Molecule `CCC(=O)c1ccc2nc(-c3ccccc3)c(CCCCC(=O)O)nc2c1` [compound 6, 7-(1-oxopropyl)-3-phenyl-2-quinoxalinepentanoic acid] has a Ki of 0.1 to 2 nM. Molecule `CNC(=O)c1ccc2nc(-c3ccc(F)cc3)c(CCCCC(=O)O)nc2c1` [compound 7, 3-(4-fluorophenyl)-7-[(methylamino)carbonyl]-2-quinoxalinepentanoic acid] has a Ki of 2.1 to 20 nM. For `O=C(O)CCCCc1nc2ccc(C(=O)NCc3cccc(Cl)c3)cc2nc1-c1ccccc1` [compound 8], the Ki was 20.1 to 200 nM. For `COC(=O)c1ccc2nc(-c3ccccc3)c(OCCCC(=O)O)nc2c1` [compound 9, 4-{[7-(Methoxycarbonyl)-3-phenylquinoxalin-2-yl]oxy}butanoic Acid], the Ki was 2.1 to 20 nM. For `O=C(O)CCCOc1nc2cc(C(=O)NCc3cccnc3)ccc2nc1-c1ccccc1` [compound 10, 4-({3-Phenyl-7-[(pyridin-3-ylmethyl)carbamoyl]quinoxalin-2-yl}oxy)butanoic Acid], the Ki was 2.1 to 20 nM. For `O=C(O)CCCCc1nc2cc(NC(=O)Cc3ccc(Cl)c(Cl)c3)ccc2nc1-c1ccccc1` [compound 11], the Ki was 20.1 to 200 nM. `O=C(O)CCCCc1nc2cc(NS(=O)(=O)Cc3ccccc3)ccc2nc1-c1ccccc1` [compound 12, 5-{7-[(benzylsulfonyl)amino]-3-phenylquinoxalin-2-yl}pentanoic Acid] showed a Ki of 201 to 700 nM. For `COC(=O)c1cnc2nc(-c3ccccc3)c(CCCCC(=O)O)nc2c1` [compound 13, 5-[7-(Methoxycarbonyl)-3-phenylpyrido[2,3-b]pyrazin-2-yl]pentanoic Acid], the Ki was 20.1 to 200 nM. Molecule `O=C(O)CCCCc1nc2cc(C(=O)NCc3ccc(C(F)(F)F)cc3)cnc2nc1-c1ccccc1` [compound 14] has a Ki of 2.1 to 20 nM. Work on `O=C(O)CCCCc1nc2cc(C(=O)NCc3ccc(Cl)cc3)ccc2nc1-c1ccc(Cl)cc1` [compound 16] yielded a Ki of 0.1 to 2 nM.

Same assay, conditions: [3H]PGD2 binding, values in text
In the case of `O=C(O)CCCCc1nc2cc(C(=O)C3CC3)ccc2nc1-c1cccc(F)c1` [compound 3, 5-[7-(Cyclopropanecarbonyl)-3-(3-fluorophenyl)quinoxalin-2-yl]pentanoic Acid], the Ki is reported as 3.2 nM.
